Data published in patent US20260022096A1, “NOVEL SULFONAMIDES AND THEIR USE AS NEUROPROTECTIVE AND/OR NEURORESTORATIVE AGENTS” (GENECODE, priority 2022, published 2026).

Target: T1, GFRα1-RET (Homo sapiens, UniProt P56159)
T1 construct: expressed in transfected cells; host or cells: MG87 murine fibroblasts, stably transfected
T1 sequence (P56159 25-429 limits assumed): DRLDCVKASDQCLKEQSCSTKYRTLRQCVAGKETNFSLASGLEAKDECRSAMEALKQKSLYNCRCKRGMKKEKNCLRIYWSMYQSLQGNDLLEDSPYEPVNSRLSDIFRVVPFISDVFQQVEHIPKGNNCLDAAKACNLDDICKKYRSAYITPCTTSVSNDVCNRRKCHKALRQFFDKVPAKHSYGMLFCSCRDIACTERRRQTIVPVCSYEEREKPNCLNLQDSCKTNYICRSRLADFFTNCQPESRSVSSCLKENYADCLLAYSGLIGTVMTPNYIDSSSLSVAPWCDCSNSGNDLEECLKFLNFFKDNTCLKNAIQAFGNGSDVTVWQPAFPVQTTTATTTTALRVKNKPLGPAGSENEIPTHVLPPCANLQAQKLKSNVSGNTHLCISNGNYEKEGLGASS
Experiment: Elk1 reporter-gene (luciferase) assay in cells expressing GFRα1-RET
Format: cell-based
Conditions: MG87 murine fibroblasts stably transfected with PathDetect Elk-1, GFRα1 and RET, 6 concentrations, agonist/activator activity
Procedure: For ECso determination, a dose-response test was performed using 6 concentrations of each tested compound. Dose-response curves were fitted using the sigmoidal dose-response (variable slope) analysis in GraphPad Prism program (Graph Pad Inc) and ECso of agonist/activator activity was calculated. Dose-response experiments were all performed in duplicate, two times independently.

Q: With `COc1ccc(S(=O)(=O)N2CCC(c3ccccc3)CC2)cc1N1[C@@H]2CC[C@H]1CN(C(=O)c1ccc(F)cc1Cl)C2` [compound 009, (2-chloro-4-fluoro-phenyl)-[(1S,5R)-8-[2-methoxy-5-[(4-phenyl-1-piperidyl)sulfonyl]phenyl]-3,8-diazabicyclo[3.2.1]octan-3-yl]methanone] as the molecule, how does the EC50 read?
A: 1 to 10 µM

Q: `COc1ccc(S(=O)(=O)N2CCC(CCc3ccccc3)CC2)cc1N1[C@@H]2CC[C@H]1CN(C(=O)c1ccc(F)cc1Cl)C2` [compound 010, (2-chloro-4-fluoro-phenyl)-[(1S,5R)-8-[2-methoxy-5-[[4-(2-phenylethyl)-1-piperidyl]sulfonyl]phenyl]-3,8-diazabicyclo[3.2.1]octan-3-yl]methanone] was tested. Which EC50 did it give?
A: < 1 µM

Q: Which EC50 does the source give for `COc1ccc(S(=O)(=O)N2CCN(c3ccccc3)CC2)cc1N1[C@@H]2CC[C@H]1CN(C(=O)c1ccc(F)cc1Cl)C2` [compound 012, (2-chloro-4-fluoro-phenyl)-[(1S,5R)-8-[2-methoxy-5-(4-phenylpiperazin-1-yl)sulfonyl-phenyl]-3,8-diazabicyclo[3.2.1]octan-3-yl]methanone] here?
A: < 1 µM

Q: With `COc1ccc(S(=O)(=O)N2CCN(c3ncccn3)CC2)cc1N1[C@@H]2CC[C@H]1CN(C(=O)c1ccc(F)cc1Cl)C2` [compound 013] as the molecule, how does the EC50 read?
A: 1 to 10 µM

Q: With `COc1ccc(S(=O)(=O)N2CCN(Cc3ccccc3)CC2)cc1N1[C@@H]2CC[C@H]1CN(C(=O)c1ccc(F)cc1Cl)C2` [compound 014] as the molecule, how does the EC50 read?
A: 1 to 10 µM

Q: Which EC50 does the source give for `COc1ccc(S(=O)(=O)N2C[C@H]3CCCC[C@H]3C2)cc1N1[C@@H]2CC[C@H]1CN(C(=O)c1ccc(F)cc1Cl)C2` [compound 015, [(1S,5R)-8-[5-[[(3aS,7aR)-1,3,3a,4,5,6,7,7a-octahydroisoindol-2-yl]sulfonyl]-2-methoxy-phenyl]-3,8-diazabicyclo[3.2.1]octan-3-yl]-(2-chloro-4-fluoro-phenyl)methanone] here?
A: < 1 µM

Q: Which EC50 does the source give for `CCCN(C)S(=O)(=O)c1ccc(OC)c(N2[C@@H]3COC[C@H]2CN(C(=O)c2ccc(F)cc2C(F)(F)F)C3)c1` [compound 023, 3-[(1S,5R)-7-[4-fluoro-2-(trifluoromethyl)benzoyl]-3-oxa-7,9-diazabicyclo[3.3.1]nonan-9-yl]-4-methoxy-N-methyl-N-propyl-benzenesulfonamide] here?
A: 10 to 50 µM

Q: `CCCN(C)S(=O)(=O)c1ccc(OC)c(N2C3CCC2CN(C(=O)c2ccc(F)cc2C(F)(F)F)C3)c1` [compound 024, 3-[3-[4-fluoro-2-(trifluoromethyl)benzoyl]-3,8-diazabicyclo[3.2.1]octan-8-yl]-4-methoxy-N-methyl-N-propyl-benzenesulfonamide] was tested. Which EC50 did it give?
A: 1 to 10 µM

Q: Which EC50 does the source give for `CCCN(C)S(=O)(=O)c1ccc(F)c(N2[C@@H]3CC[C@H]2CN(C(=O)c2ccc(F)cc2Cl)C3)c1` [compound 026] here?
A: 1 to 10 µM

Q: With `CCCN(C)S(=O)(=O)c1ccc(OC(F)(F)F)c(N2[C@@H]3CC[C@H]2CN(C(=O)c2ccc(F)cc2Cl)C3)c1` [compound 027, 3-[(1S,5R)-3-(2-chloro-4-fluoro-benzoyl)-3,8-diazabicyclo[3.2.1]octan-8-yl]-N-methyl-N-propyl-4-(trifluoromethoxy)benzene sulfonamide] as the molecule, how does the EC50 read?
A: 1 to 10 µM

Q: For `CCCN(C)S(=O)(=O)c1cccc(N2[C@@H]3CC[C@H]2CN(C(=O)c2ccc(F)cc2Cl)C3)c1` [compound 028, 3-[(1S,5R)-3-(2-chloro-4-fluoro-benzoyl)-3,8-diazabicyclo[3.2.1]octan-8-yl]-N-methyl-N-propyl-benzenesulfonamide], which EC50 is on record?
A: 1 to 10 µM

Q: With `CCCN(C)S(=O)(=O)c1ccc(OCC)c(N2[C@@H]3CC[C@H]2CN(C(=O)c2ccc(F)cc2Cl)C3)c1` [compound 029] as the molecule, how does the EC50 read?
A: 1 to 10 µM

Q: With `CCCN(C)S(=O)(=O)c1ccc(OC2CCC2)c(N2[C@@H]3CC[C@H]2CN(C(=O)c2ccc(F)cc2Cl)C3)c1` [compound 030, 3-[(1S,5R)-3-(2-chloro-4-fluoro-benzoyl)-3,8-diazabicyclo[3.2.1]octan-8-yl]-4-(cyclobutoxy)-N-methyl-N-propyl-benzenesulfonamide] as the molecule, how does the EC50 read?
A: 1 to 10 µM

Q: With `CCCN(C)S(=O)(=O)c1ccc(OCOC)c(N2[C@@H]3CC[C@H]2CN(C(=O)c2ccc(F)cc2Cl)C3)c1` [compound 031, 3-[(1S,5R)-3-(2-chloro-4-fluoro-benzoyl)-3,8-diazabicyclo[3.2.1]octan-8-yl]-4-(methoxymethoxy)-N-methyl-N-propyl-benzenesulfonamide] as the molecule, how does the EC50 read?
A: 1 to 10 µM

Q: For `CCN(CC)S(=O)(=O)c1cnc(Cl)c(N2[C@@H]3CC[C@H]2CN(C(=O)c2ccc(F)cc2Cl)C3)c1` [compound 032, 6-chloro-5-[(1S,5R)-3-(2-chloro-4-fluoro-benzoyl)-3,8-diazabicyclo[3.2.1]octan-8-yl]-N,N-diethyl-pyridine-3-sulfonamide], which EC50 is on record?
A: 1 to 10 µM

Q: How did the EC50 turn out when `CCN(CC)S(=O)(=O)c1cnc(OC)c(N2[C@@H]3CC[C@H]2CN(C(=O)c2ccc(F)cc2Cl)C3)c1` [compound 033, 5-[(1S,5R)-3-(2-chloro-4-fluoro-benzoyl)-3,8-diazabicyclo[3.2.1]octan-8-yl]-N,N-diethyl-6-methoxy-pyridine-3-sulfonamide] was run?
A: 1 to 10 µM

Q: `CCN(CC)S(=O)(=O)c1cnc(OCc2ccccc2)c(N2[C@@H]3CC[C@H]2CN(C(=O)c2ccc(F)cc2Cl)C3)c1` [compound 034, 6-benzyloxy-5-[(1S,5R)-3-(2-chloro-4-fluoro-benzoyl)-3,8-diazabicyclo[3.2.1]octan-8-yl]-N,N-diethyl-pyridine-3-sulfonamide] was tested. Which EC50 did it give?
A: < 1 µM

Q: Which EC50 does the source give for `CCN(CC)S(=O)(=O)c1cnc(O)c(N2[C@@H]3CC[C@H]2CN(C(=O)c2ccc(F)cc2Cl)C3)c1` [compound 035] here?
A: 10 to 50 µM

Q: With `CCCN(C)S(=O)(=O)c1ccc(O)c(N2[C@@H]3CC[C@H]2CN(C(=O)c2ccc(F)cc2Cl)C3)c1` [compound 036, 3-[(1S,5R)-3-(2-chloro-4-fluoro-benzoyl)-3,8-diazabicyclo[3.2.1]octan-8-yl]-4-hydroxy-N-methyl-N-propyl-benzenesulfonamide] as the molecule, how does the EC50 read?
A: 1 to 10 µM

Q: How did the EC50 turn out when `COc1ccc(S(=O)(=O)N2CCC(c3ccc(F)cc3)CC2)cc1N1[C@@H]2CC[C@H]1CN(C(=O)c1ccc(F)cc1Cl)C2` [compound 039, (2-chloro-4-fluoro-phenyl)-[(1S,5R)-8-[5-[[4-(4-fluorophenyl)-1-piperidyl]sulfonyl]-2-methoxy-phenyl]-3,8-diazabicyclo[3.2.1]octan-3-yl]methanone] was run?
A: < 1 µM

Q: For `COc1ccc(S(=O)(=O)N2CCC(c3cccc(C#N)c3)CC2)cc1N1[C@@H]2CC[C@H]1CN(C(=O)c1ccc(F)cc1Cl)C2` [compound 040, 3-[1-[3-[(1S,5R)-3-(2-chloro-4-fluoro-benzoyl)-3,8-diazabicyclo[3.2.1]octan-8-yl]-4-methoxy-phenyl]sulfonyl-4-piperidyl]benzonitrile], which EC50 is on record?
A: < 1 µM

Q: Which EC50 does the source give for `COC(=O)c1cccc(C2CCN(S(=O)(=O)c3ccc(OC)c(N4[C@@H]5CC[C@H]4CN(C(=O)c4ccc(F)cc4Cl)C5)c3)CC2)c1` [compound 041, methyl 3-[1-[3-[(1S,5R)-3-(2-chloro-4-fluoro-benzoyl)-3,8-diazabicyclo[3.2.1]octan-8-yl]-4-methoxy-phenyl]sulfonyl-4-piperidyl]benzoate] here?
A: < 1 µM

Q: How did the EC50 turn out when `COC(=O)c1ccc(C2CCN(S(=O)(=O)c3ccc(OC)c(N4[C@@H]5CC[C@H]4CN(C(=O)c4ccc(F)cc4Cl)C5)c3)CC2)cc1` [compound 042, methyl 4-[1-[3-[(1S,5R)-3-(2-chloro-4-fluoro-benzoyl)-3,8-diazabicyclo[3.2.1]octan-8-yl]-4-methoxy-phenyl]sulfonyl-4-piperidyl]benzoate] was run?
A: < 1 µM
